Tests used:
ER-α in MCF-7 cells = target: T1, ER-α in MCF-7 cells (Homo sapiens, UniProt P03372); assay: Breast Cancer Cell ER-α In Cell Western Assay (SP1); format: cell-based; details: 4 or 24 hr post compound addition; for Emax: MCF7, SP1 antibody, read-out: ER-α In Cell Western Assay (SP1) Max Response; for DC50: SP1 antibody, read-out: ER-α In Cell Western Assay (SP1) IC50
T1 construct: endogenous in cells; host or cells: MCF-7
T1 sequence (P03372 1-595): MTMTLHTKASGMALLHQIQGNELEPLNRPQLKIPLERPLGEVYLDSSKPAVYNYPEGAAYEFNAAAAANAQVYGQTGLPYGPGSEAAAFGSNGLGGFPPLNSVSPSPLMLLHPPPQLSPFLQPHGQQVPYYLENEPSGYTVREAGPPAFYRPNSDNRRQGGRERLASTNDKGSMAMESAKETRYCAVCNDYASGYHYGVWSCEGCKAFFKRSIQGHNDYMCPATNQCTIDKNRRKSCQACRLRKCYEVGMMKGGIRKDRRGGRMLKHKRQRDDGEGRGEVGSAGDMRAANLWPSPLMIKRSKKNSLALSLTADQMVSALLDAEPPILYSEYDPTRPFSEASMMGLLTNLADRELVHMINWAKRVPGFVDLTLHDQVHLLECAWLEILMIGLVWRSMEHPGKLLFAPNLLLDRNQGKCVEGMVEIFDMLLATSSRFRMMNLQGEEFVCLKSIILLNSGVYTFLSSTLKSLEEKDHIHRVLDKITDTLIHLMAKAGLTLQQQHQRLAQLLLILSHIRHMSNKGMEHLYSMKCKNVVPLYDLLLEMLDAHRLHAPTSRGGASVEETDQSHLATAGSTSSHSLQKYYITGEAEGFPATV
Method in brief: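 ER-α levels quantified by in-cell western: SP1 signal normalised to DRAQ5 DNA stain, relative to untreated cells (% ER). Compounds at 0.3–0.000003 μM final, 11-point semilog series, 4 or 24 h exposure of MCF-7 cells grown in charcoal-stripped serum.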

MCF-7 cells = assay: Breast Cancer Cell Viability Assays (MCF-7, CellTiter-Glo); format: cell-based; details: 5 days' compound exposure; for IC50: Homo sapiens, MCF7, 120 h
Method in brief: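 Percent viability, background-subtracted against untreated wells, was taken from CellTiter-Glo luminescence after 5 days' exposure of MCF-7 cells. Compounds were tested at eleven semilog concentrations, final 0.3–0.000003 μM, in RPMI containing 10% FBS.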

Row | Emax (ER-α in MCF-7 cells) [%] | DC50 (ER-α in MCF-7 cells) [nM] | IC50 (MCF-7 cells) [nM] | SMILES | MCF7 Viability Assay Max Response (MCF-7 cells)
1 | ≥ 40 | ≤ 100 | ≤ 100 | Clc1cnccc1/C(=C(\c1ccc(/C=C/c2nnn[nH]2)cc1)c1ccc2scnc2c1)C1CCC1 [Example 176, 5-((E)-1-(4-((E)-2-(2H-Tetrazol-5-yl)vinyl)phenyl)-2-(3-chloropyridin-4-yl)-2-cyclobutylvinyl)benzo[d]thiazole] | ++ (++ = a single % value ≧ 40%)
2 | ≥ 40 | ≤ 100 | ≤ 100 | Cc1cnccc1/C(=C(\c1ccc(/C=C/c2nnn[nH]2)cc1)c1ccc2scnc2c1)C1CCC1 [Example 177, 5-((E)-1-(4-((E)-2-(2H-Tetrazol-5-yl)vinyl)phenyl)-2-cyclobutyl-2-(3-methylpyridin-4-yl)vinyl)benzo[d]thiazole] | ++ (++ = a single % value ≧ 40%)
3 | ≥ 40 | ≤ 100 | ≤ 100 | Fc1ccc(/C(=C(\c2ccc(/C=C/c3nnn[nH]3)cc2)c2ccc3nccn3c2)C2CCC2)c(Cl)c1 [Example 178, 6-((E)-1-(4-((E)-2-(2H-Tetrazol-5-yl)vinyl)phenyl)-2-(2-chloro-4-fluorophenyl)-2-cyclobutylvinyl)imidazo[1,2-a]pyridine] | ++ (++ = a single % value ≧ 40%)
4 | ≥ 40 | ≤ 100 | ≤ 100 | CC/C(=C(/c1ccc(/C=C/C(=O)NCCO)cc1)c1ccc2[nH]ncc2c1)c1ccc(F)cc1Cl [Example 179, (E)-3-(4-((E)-2-(2-Chloro-4-fluorophenyl)-1-(1H-indazol-5-yl)but-1-en-1-yl)phenyl)-N-(2-hydroxyethyl)acrylamide] | ++ (++ = a single % value ≧ 40%)
5 | ≥ 40 | ≤ 100 | ≤ 100 | Cc1cscc1/C(=C(\c1ccc(/C=C/C(=O)NCCO)cc1)c1ccc2scnc2c1)C1CCC1 [Example 180, (E)-3-(4-((E)-1-(Benzo[d]thiazol-5-yl)-2-cyclobutyl-2-(4-methylthiophen-3-yl)vinyl)phenyl)-N-(2-hydroxyethyl)acrylamide] | ++ (++ = a single % value ≧ 40%)
6 | ≥ 40 | ≤ 100 | ≤ 100 | Cc1cscc1/C(=C(\c1ccc(/C=C/C(=O)NCCO)cc1)c1ccc2[nH]nc(F)c2c1)C1CCC1 [Example 181, (E)-3-(4-((E)-2-Cyclobutyl-1-(3-fluoro-1H-indazol-5-yl)-2-(4-methylthiophen-3-yl)vinyl)phenyl)-N-(2-hydroxyethyl)acrylamide] | ++ (++ = a single % value ≧ 40%)
7 | ≥ 40 | ≤ 100 | ≤ 100 | O=C(/C=C/c1ccc(/C(=C(\c2ccccc2)C2CCC2)c2ccc3[nH]nnc3c2)cc1)NCCO [Example 182, (E)-3-(4-((E)-1-(1H-Benzo[d][1,2,3]triazol-5-yl)-2-cyclobutyl-2-phenylvinyl)phenyl)-N-(2-hydroxyethyl)acrylamide] | ++ (++ = a single % value ≧ 40%)
8 | ≥ 40 | ≤ 100 | ≤ 100 | O=C(/C=C/c1ccc(/C(=C(\c2ccccc2)C2CCC2)c2cccc3[nH]ncc23)cc1)NCCO [Example 183, (E)-3-(4-((E)-2-Cyclobutyl-1-(1H-indazol-4-yl)-2-phenylvinyl)phenyl)-N-(2-hydroxyethyl)acrylamide] | ++ (++ = a single % value ≧ 40%)
9 | ≥ 40 | ≤ 100 | ≤ 100 | CC/C(=C(/c1ccc(/C=C/C(=O)NC)cc1)c1ccc2scnc2c1)c1ccc(F)cc1Cl [Example 184, (E)-3-(4-((E)-1-(Benzo[d]thiazol-5-yl)-2-(2-chloro-4-fluorophenyl)but-1-en-1-yl)phenyl)-N-methylacrylamid] | ++ (++ = a single % value ≧ 40%)
10 | ≥ 40 | ≤ 100 | ≤ 100 | CC/C(=C(/c1ccc(/C=C/C(=O)Nc2nccs2)cc1)c1ccc2[nH]ncc2c1)c1ccc(F)cc1Cl [Example 185, (E)-3-(4-((E)-2-(2-Chloro-4-fluorophenyl)-1-(1H-indazol-5-yl)but-1-en-1-yl)phenyl)-N-(thiazol-2-yl)acrylamide] | ++ (++ = a single % value ≧ 40%)
11 | ≥ 40 | ≤ 100 | ≤ 100 | O=C(/C=C/c1ccc(/C(=C(\c2ccc(F)cc2Cl)C2CCC2)c2ccc3[nH]nc(F)c3c2)cc1)Nc1nccs1 [Example 186, (E)-3-(4-((E)-2-(2-Chloro-4-fluorophenyl)-2-cyclobutyl-1-(3-fluoro-1H-indazol-5-yl)vinyl)phenyl)-N-(thiazol-2-yl)acrylamide] | ++ (++ = a single % value ≧ 40%)

Continued, molecule first:

Row | SMILES | Emax (ER-α in MCF-7 cells) [%] | DC50 (ER-α in MCF-7 cells) [nM] | IC50 (MCF-7 cells) [nM] | MCF7 Viability Assay Max Response (MCF-7 cells)
12 | O=C(O)/C=C/c1ccc(/C(=C(\c2ccccc2)C2CCC2)c2ccc3[nH]nc(F)c3c2)cc1Cl [Example 167, (E)-3-(2-Chloro-4-((Z)-2-cyclobutyl-1-(3-fluoro-1H-indazol-5-yl)-2-phenylvinyl)phenyl)acrylic acid] | ≥ 40 | ≤ 100 | ≤ 100 | ++ (++ = a single % value ≧ 40%)
13 | O=C(O)/C=C/c1ccc(/C(=C(\c2ccc(F)cc2Cl)C2CCC2)c2ccc3[nH]nc(F)c3c2)cn1 [Example 168, (E)-3-(5-((Z)-2-(2-Chloro-4-fluorophenyl)-2-cyclobutyl-1-(3-fluoro-1H-indazol-5-yl)vinyl)pyridin-2-yl)acrylic acid] | ≥ 40 | ≤ 100 | ≤ 100 | ++ (++ = a single % value ≧ 40%)
14 | O=C(O)/C=C/c1ccc(/C(=C(\c2ccccc2Cl)C2CCC2)c2ccc3[nH]nc(F)c3c2)cn1 [Example 169, (E)-3-(5-((Z)-2-(2-Chlorophenyl)-2-cyclobutyl-1-(3-fluoro-1H-indazol-5-yl)vinyl)pyridin-2-yl)acrylic acid] | ≥ 40 | ≤ 100 | ≤ 100 | ++ (++ = a single % value ≧ 40%)
15 | CC/C(=C(/c1ccc(/C=C/c2nnn[nH]2)cc1)c1ccc2[nH]nc(F)c2c1)c1ccc(F)cc1Cl [Example 170, 5-((E)-1-(4-((E)-2-(2H-Tetrazol-5-yl)vinyl)phenyl)-2-(2-chloro-4-fluorophenyl)but-1-en-1-yl)-3-fluoro-1H-indazole] | ≥ 40 | ≤ 100 | ≤ 100 | ++ (++ = a single % value ≧ 40%)
16 | CC/C(=C(/c1ccc(/C=C/c2nnn[nH]2)cc1)c1ccc2[nH]nc(F)c2c1)c1ccncc1Cl [Example 171, 5-((E)-1-(4-((E)-2-(2H-Tetrazol-5-yl)vinyl)phenyl)-2-(3-chloropyridin-4-yl)but-1-en-1-yl)-3-fluoro-1H-indazole] | ≥ 40 | ≤ 100 | ≤ 100 | ++ (++ = a single % value ≧ 40%)
17 | Fc1n[nH]c2ccc(/C(=C(/c3ccncc3Cl)C3CCC3)c3ccc(/C=C/c4nnn[nH]4)cc3)cc12 [Example 172, 5-((E)-1-(4-((E)-2-(2H-Tetrazol-5-yl)vinyl)phenyl)-2-(3-chloropyridin-4-yl)-2-cyclobutylvinyl)-3-fluoro-1H-indazole] | ≥ 40 | ≤ 100 | ≤ 100 | ++ (++ = a single % value ≧ 40%)
18 | Fc1ccc(/C(=C(\c2ccc(/C=C/c3nnn[nH]3)cc2)c2cccc3[nH]ncc23)C2CCC2)c(Cl)c1 [Example 173, 4-((E)-1-(4-((E)-2-(2H-Tetrazol-5-yl)vinyl)phenyl)-2-(2-chloro-4-fluorophenyl)-2-cyclobutylvinyl)-1H-indazole] | ≥ 40 | ≤ 100 | ≤ 100 | ++ (++ = a single % value ≧ 40%)
19 | Fc1n[nH]c2ccc(/C(=C(/c3ccccc3)C3CCC3)c3ccc(/C=C/c4nnn[nH]4)cc3)cc12 [Example 174, 5-((E)-1-(4-((E)-2-(1H-Tetrazol-5-yl)vinyl)phenyl)-2-cyclobutyl-2-phenylvinyl)-3-fluoro-1H-indazole] | ≥ 40 | ≤ 100 | ≤ 100 | ++ (++ = a single % value ≧ 40%)
20 | Fc1ccc(/C(=C(\c2ccc(/C=C/c3nnn[nH]3)cc2)c2ccc3scnc3c2)C2CCC2)c(Cl)c1 [Example 175, 5-((E)-1-(4-((E)-2-(2H-Tetrazol-5-yl)vinyl)phenyl)-2-(2-chloro-4-fluorophenyl)-2-cyclobutylvinyl)benzo[d]thiazole] | ≥ 40 | ≤ 100 | ≤ 100 | ++ (++ = a single % value ≧ 40%)
